{
  "source": "paper PMC7558399",
  "about": "“In Vitro Selective Growth-Inhibitory Activities of Phytochemicals, Synthetic Phytochemical Analogs, and Antibiotics against Diarrheagenic/Probiotic Bacteria and Cancer/Normal Intestinal Cells” (Pharmaceuticals, 2020)",
  "format_in_all_cases": "cell-based",
  "key": {"[1]": {"test_system": "Caco-2 (ATCC HTB 37) intestinal cancer cells", "experiment": "MTT cytotoxicity assay, Caco-2", "conditions": "Homo sapiens, Caco-2, 72 h"}, "[2]": {"test_system": "Listeria monocytogenes (ATCC 7644)", "experiment": "Broth microdilution MIC, L. monocytogenes"}, "[3]": {"test_system": "Yersinia enterocolitica (ATCC 9610)", "experiment": "Broth microdilution MIC, Y. enterocolitica", "conditions": "ATCC9610"}, "[4]": {"test_system": "Clostridium difficile (DSMZ 12056)", "experiment": "microbe, parasite or virus in culture", "conditions": "Clostridioides difficile, DSMZ12056"}, "[5]": {"test_system": "Bifidobacterium longum ssp. longum (DSMZ 20219)", "experiment": "Broth microdilution MIC, B. longum ssp. longum", "conditions": "DSMZ20219"}, "[6]": {"test_system": "Salmonella enterica ssp. enterica serovar Enteritidis (ATCC 13076)", "experiment": "Broth microdilution MIC, Salmonella Enteritidis"}, "[7]": {"test_system": "Bacteroides fragilis (ATCC 25285)", "experiment": "Broth microdilution MIC, B. fragilis"}, "[8]": {"test_system": "Lactobacillus casei (DSMZ 20011)", "experiment": "Broth microdilution MIC, L. casei", "conditions": "Lacticaseibacillus casei, DSMZ20011"}, "[9]": {"test_system": "Vibrio parahaemolyticus (ATCC 17802)", "experiment": "Broth microdilution MIC, V. parahaemolyticus"}, "[10]": {"test_system": "E. coli 0175:H7 (NCTC 12900)", "experiment": "microbe, parasite or virus in culture", "conditions": "Escherichia coli, NCTC12900"}, "[11]": {"test_system": "probiotic bacteria (9 strains)", "experiment": "Broth microdilution MIC, probiotic bacteria as a group (mean or range over strains)", "conditions": "read-out: x¯ -PB ± SD: mean MIC for probiotic bacteria"}, "[12]": {"test_system": "diarrheagenic bacteria (12 strains)", "experiment": "microbe, parasite or virus in culture"}, "[13]": {"test_system": "Shigella flexneri (ATCC 12022)", "experiment": "microbe, parasite or virus in culture", "conditions": "ATCC12022"}, "[14]": {"test_system": "Bifidobacterium animalis spp. lactis (DSMZ 10140)", "experiment": "Broth microdilution MIC, B. animalis spp. lactis", "conditions": "DSMZ10140"}, "[15]": {"test_system": "Escherichia coli (ATCC 25922)", "experiment": "Broth microdilution MIC, E. coli"}, "[16]": {"test_system": "S. enterica ssp. enterica serovar Typhimurium (ATCC 14028)", "experiment": "Broth microdilution MIC, Salmonella Typhimurium"}, "[17]": {"test_system": "Bacillus cereus (ATCC 14579)", "experiment": "Broth microdilution MIC, B. cereus"}, "[18]": {"test_system": "Lactobacillus reuteri (CCM 3625)", "experiment": "Broth microdilution MIC, L. reuteri", "conditions": "Limosilactobacillus reuteri, CCM3625"}, "[19]": {"test_system": "FHs 74 Int (ATCC CCL 241) intestinal normal cells", "experiment": "MTT cytotoxicity assay, FHs 74 Int", "conditions": "FHs74Int, 72 h; for IC50: read-out: IC50 ± SD; for IC80: read-out: IC80 ± SD (80% inhibitory concentration of proliferation)"}, "[20]": {"test_system": "Clostridium perfringens (DSMZ 11778)", "experiment": "microbe, parasite or virus in culture", "conditions": "DSMZ11778"}, "[21]": {"test_system": "Bifidobacterium breve (ATCC 15700)", "experiment": "Broth microdilution MIC, B. breve"}, "[22]": {"test_system": "Enterococcus faecalis (ATCC 29212)", "experiment": "Broth microdilution MIC, E. faecalis"}, "[23]": {"test_system": "HT29 (ATCC HTB 38) intestinal cancer cells", "experiment": "MTT cytotoxicity assay, HT29", "conditions": "Homo sapiens; for IC50: read-out: IC50 ± SD; for IC80: read-out: IC80 ± SD (80% inhibitory concentration of proliferation)"}, "[24]": {"test_system": "intestinal cancer cells (HT29 and Caco-2)", "experiment": "MTT cytotoxicity assay, mean for intestinal cancer cells"}, "[25]": {"test_system": "Lactobacillus rhamnosus (CCM 7091)", "experiment": "Broth microdilution MIC, L. rhamnosus", "conditions": "Lacticaseibacillus rhamnosus, CCM7091"}, "[26]": {"test_system": "Bifidobacterium bifidum (ATCC 29521)", "experiment": "Broth microdilution MIC, B. bifidum"}, "[27]": {"test_system": "Bifidobacterium adolescentis (DSMZ 20087)", "experiment": "Broth microdilution MIC, B. adolescentis"}, "[28]": {"conditions": "FHs 74 Int (intestinal normal cells), MTT"}},
  "note": "Where two headings read alike, the source gives them in different places.",
  "data": [
    {"molecule": "Oc1cccc2cccnc12", "note": "[8HQ, 8-hydroxyquinoline]", "values": [
      {"measurement": "IC50", "setting": "[1]; read-out: IC50 ± SD", "result": "0.3 ± 0.1", "unit": "µg/mL"},
      {"measurement": "IC80", "setting": "[1]; read-out: IC80 ± SD (80% inhibitory concentration of proliferation)", "result": "0.9 ± 0.1", "unit": "µg/mL"},
      {"measurement": "MIC", "setting": "[2]; ATCC7644", "result": 1, "unit": "µg/mL"},
      {"measurement": "MIC", "setting": "[3]", "result": 512, "unit": "µg/mL"},
      {"measurement": "MIC", "setting": "[4]", "result": 128, "unit": "µg/mL"},
      {"measurement": "MIC", "setting": "[5]; Bifidobacterium longum", "result": 512, "unit": "µg/mL"},
      {"measurement": "MIC", "setting": "[6]", "result": 256, "unit": "µg/mL"},
      {"measurement": "MIC", "setting": "[7]; ATCC25285", "result": 32, "unit": "µg/mL"},
      {"measurement": "MIC", "setting": "[8]", "result": "> 512", "unit": "µg/mL"},
      {"measurement": "MIC", "setting": "[9]; ATCC17802", "result": 128, "unit": "µg/mL"},
      {"measurement": "MIC", "setting": "[10]", "result": 256, "unit": "µg/mL"},
      {"measurement": "MIC", "setting": "[11]", "result": "743 ± 343", "unit": "µg/mL"},
      {"measurement": "MIC", "setting": "[12]; read-out: x¯ -DB ± SD: mean MIC for diarrheagenic bacteria", "result": "224 ± 181", "unit": "µg/mL"},
      {"measurement": "MIC", "setting": "[13]", "result": 128, "unit": "µg/mL"},
      {"measurement": "MIC", "setting": "[14]; Bifidobacterium animalis", "result": "> 512", "unit": "µg/mL"},
      {"measurement": "MIC", "setting": "[15]; ATCC25922", "result": 128, "unit": "µg/mL"},
      {"measurement": "MIC", "setting": "[16]", "result": 512, "unit": "µg/mL"},
      {"measurement": "MIC", "setting": "[17]; ATCC14579", "result": 512, "unit": "µg/mL"},
      {"measurement": "MIC", "setting": "[18]", "result": "> 512", "unit": "µg/mL"},
      {"measurement": "IC50", "setting": "[19]", "result": "10.7 ± 0.2", "unit": "µg/mL"},
      {"measurement": "IC80", "setting": "[19]", "result": "20.3 ± 2.4", "unit": "µg/mL"},
      {"measurement": "MIC", "setting": "[20]", "result": 128, "unit": "µg/mL"},
      {"measurement": "MIC", "setting": "[21]; ATCC15700", "result": "> 512", "unit": "µg/mL"},
      {"measurement": "MIC", "setting": "[22]; ATCC29212", "result": 4, "unit": "µg/mL"},
      {"measurement": "IC50", "setting": "[23]; HT-29, 72 h", "result": "1.3 ± 0.3", "unit": "µg/mL"},
      {"measurement": "IC80", "setting": "[23]; HT-29, 72 h", "result": "4.8 ± 2.8", "unit": "µg/mL"},
      {"measurement": "IC50", "setting": "[24]; read-out: x¯ -CC ± SD: mean IC50 for intestinal cancer cells", "result": "0.8 ± 0.5", "unit": "µg/mL"},
      {"measurement": "IC80", "setting": "[24]; read-out: x¯ -CC ± SD: mean IC80 for intestinal cancer cells", "result": "2.9 ± 2", "unit": "µg/mL"},
      {"measurement": "MIC", "setting": "[25]", "result": "> 512", "unit": "µg/mL"},
      {"measurement": "MIC", "setting": "[26]; ATCC29521", "result": 512, "unit": "µg/mL"},
      {"measurement": "MIC", "setting": "[27]; DSMZ20087", "result": 512, "unit": "µg/mL"}
    ]},
    {"molecule": "O=C(O)c1cn(C2CC2)c2cc(N3CCNCC3)c(F)cc2c1=O", "note": "[CP, ciprofloxacin]", "values": [
      {"measurement": "MIC", "setting": "[2]; ATCC7644, growth inhibited by ≥80%, read-out: MIC", "result": 4, "unit": "µg/mL"},
      {"measurement": "MIC", "setting": "[5]; Bifidobacterium longum ssp. longum, growth inhibited by ≥80%, read-out: MIC", "result": 16, "unit": "µg/mL"},
      {"measurement": "MIC", "setting": "[6]; Salmonella Enteritidis, growth inhibited by ≥80%, read-out: MIC", "result": 0.031, "unit": "µg/mL"},
      {"measurement": "MIC", "setting": "[7]; ATCC25285, growth inhibited by ≥80%, read-out: MIC", "result": 8, "unit": "µg/mL"},
      {"measurement": "MIC", "setting": "[8]; Lactobacillus casei, growth inhibited by ≥80%, read-out: MIC", "result": 32, "unit": "µg/mL"},
      {"measurement": "MIC", "setting": "[9]; ATCC17802, growth inhibited by ≥80%, read-out: MIC", "result": 0.062, "unit": "µg/mL"},
      {"measurement": "MIC", "setting": "[10]", "result": 0.016, "unit": "µg/mL"},
      {"measurement": "MIC", "setting": "[11]; mean of 9 strains, >512 replaced with 1024", "result": "23.6 ± 18", "unit": "µg/mL"},
      {"measurement": "MIC", "setting": "[12]; all gram-negative diarrheagenic bacteria, range over strains, read-out: MICs", "result": "0.016 to 0.125", "unit": "µg/mL"},
      {"measurement": "MIC", "setting": "[12]; gram-positive pathogens, range over strains, read-out: MICs", "result": "1 to 16", "unit": "µg/mL"},
      {"measurement": "MIC", "setting": "[12]; mean of 12 strains, >512 replaced with 1024, read-out: x¯ -DB ± SD: mean MIC for diarrheagenic bacteria", "result": "2 ± 4", "unit": "µg/mL"},
      {"measurement": "MIC", "setting": "[13]", "result": 0.016, "unit": "µg/mL"},
      {"measurement": "MIC", "setting": "[14]; Bifidobacterium animalis spp. lactis, growth inhibited by ≥80%, read-out: MIC", "result": 32, "unit": "µg/mL"},
      {"measurement": "MIC", "setting": "[15]; ATCC25922, growth inhibited by ≥80%, read-out: MIC", "result": 0.062, "unit": "µg/mL"},
      {"measurement": "MIC", "setting": "[16]; Salmonella Typhimurium, growth inhibited by ≥80%, read-out: MIC", "result": 0.031, "unit": "µg/mL"},
      {"measurement": "MIC", "setting": "[17]; ATCC14579, growth inhibited by ≥80%, median/mode, read-out: MIC", "result": 1, "unit": "µg/mL"},
      {"measurement": "MIC", "setting": "[18]; Lactobacillus reuteri, growth inhibited by ≥80%, read-out: MIC", "result": 32, "unit": "µg/mL"},
      {"measurement": "IC50", "setting": "[19]; [28]", "result": "51.8 ± 27", "unit": "µg/mL"},
      {"measurement": "IC80", "setting": "[19]; [28]", "result": "130 ± 24", "unit": "µg/mL"},
      {"measurement": "MIC", "setting": "[21]; ATCC15700, growth inhibited by ≥80%, read-out: MIC", "result": 64, "unit": "µg/mL"},
      {"measurement": "MIC", "setting": "[22]; ATCC29212, growth inhibited by ≥80%, read-out: MIC", "result": 2, "unit": "µg/mL"},
      {"measurement": "IC50", "setting": "[23]; HT-29, HT29, MTT, 72 h", "result": "130 ± 13", "unit": "µg/mL"},
      {"measurement": "IC80", "setting": "[23]; HT-29, HT29, MTT, 72 h", "result": "> 512", "unit": "µg/mL"},
      {"measurement": "MIC", "setting": "[25]; Lactobacillus rhamnosus, growth inhibited by ≥80%, read-out: MIC", "result": 4, "unit": "µg/mL"},
      {"measurement": "MIC", "setting": "[26]; ATCC29521, growth inhibited by ≥80%, read-out: MIC", "result": 16, "unit": "µg/mL"},
      {"measurement": "MIC", "setting": "[27]; DSMZ20087, growth inhibited by ≥80%, read-out: MIC", "result": 8, "unit": "µg/mL"}
    ]}
  ]
}
